Here are results for 17 compounds from ChEMBL document CHEMBL1133449 (J Med Chem, 2000).

Test [1] has as its target Cholinesterases; ACHE & BCHE (Homo sapiens) (UniProt P06276+P22303). The experiment in a line: Ratio between IC50 of human BChE and human AChE. Type of test: protein assay.
The target of test [2] is Acetylcholinesterase (Homo sapiens, UniProt P22303).
Description: Inhibition of acetylcholinesterase isolated from Human erythrocytes.
The next test concerns the target Cholinesterase (Homo sapiens, UniProt P06276).
Test [3] deals with T1, Acetylcholinesterase (Bos taurus, UniProt P23795).
T1 sequence (P23795 whole entry): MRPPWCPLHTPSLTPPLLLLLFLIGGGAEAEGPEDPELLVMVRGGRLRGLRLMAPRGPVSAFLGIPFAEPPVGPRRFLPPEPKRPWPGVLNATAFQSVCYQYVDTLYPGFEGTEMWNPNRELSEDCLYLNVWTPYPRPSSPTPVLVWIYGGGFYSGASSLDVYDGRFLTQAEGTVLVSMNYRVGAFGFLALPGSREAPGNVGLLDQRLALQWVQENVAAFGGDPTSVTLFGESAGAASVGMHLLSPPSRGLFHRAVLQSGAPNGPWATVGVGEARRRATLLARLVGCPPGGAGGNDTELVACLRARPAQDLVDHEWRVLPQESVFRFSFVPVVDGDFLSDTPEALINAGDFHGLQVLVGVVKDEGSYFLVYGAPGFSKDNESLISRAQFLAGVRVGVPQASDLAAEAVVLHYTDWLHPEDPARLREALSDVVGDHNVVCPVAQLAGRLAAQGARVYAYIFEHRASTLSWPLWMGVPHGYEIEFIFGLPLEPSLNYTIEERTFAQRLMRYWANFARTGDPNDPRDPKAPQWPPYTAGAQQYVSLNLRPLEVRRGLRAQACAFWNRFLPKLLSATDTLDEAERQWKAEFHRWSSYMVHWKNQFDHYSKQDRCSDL
Description: Compound was evaluated for the inhibition of acetylcholinesterase of bovine erythrocytes

Test [4] in a line: Compound was evaluated for the antagonism index 10 uM; NR is No Reversion. Type of test: functional.
Test [5] in a line: Compound was evaluated for the antagonism index 10 uM; NR ismNo reversion. Type of test: functional.
The target of test [6] is T1, Acetylcholinesterase. This is another data set of the same source.
In test [7] the target is T1, Acetylcholinesterase. The source holds these as a separate data set.
Description: Compound was evaluated for the inhibition of acetylcholinesterase activity from bovine erythrocytes after 0 minutes of incubation
Test [8] is described as follows: Compound was evaluated for the antagonism index at 1 uM. Type of test: functional.

Sequence of Cholinesterases; ACHE & BCHE (Homo sapiens) (P06276 whole entry, looked up): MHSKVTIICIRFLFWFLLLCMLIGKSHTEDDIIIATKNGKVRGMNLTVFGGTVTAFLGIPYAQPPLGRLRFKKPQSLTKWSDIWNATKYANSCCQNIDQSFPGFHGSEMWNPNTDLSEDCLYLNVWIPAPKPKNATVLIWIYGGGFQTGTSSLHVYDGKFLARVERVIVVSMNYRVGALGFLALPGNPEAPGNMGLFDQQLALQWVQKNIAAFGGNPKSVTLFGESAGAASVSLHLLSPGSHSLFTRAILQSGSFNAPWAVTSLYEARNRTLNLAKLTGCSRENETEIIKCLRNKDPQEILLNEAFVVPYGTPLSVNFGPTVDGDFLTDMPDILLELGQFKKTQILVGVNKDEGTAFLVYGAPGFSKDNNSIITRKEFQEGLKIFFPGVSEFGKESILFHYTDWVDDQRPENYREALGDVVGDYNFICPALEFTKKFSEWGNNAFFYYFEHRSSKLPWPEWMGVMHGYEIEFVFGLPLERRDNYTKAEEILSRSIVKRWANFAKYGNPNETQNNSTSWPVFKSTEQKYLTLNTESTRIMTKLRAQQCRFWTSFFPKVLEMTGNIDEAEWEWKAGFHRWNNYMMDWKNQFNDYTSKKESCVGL
Sequence of Cholinesterases; ACHE & BCHE (Homo sapiens) (P22303 whole entry, looked up): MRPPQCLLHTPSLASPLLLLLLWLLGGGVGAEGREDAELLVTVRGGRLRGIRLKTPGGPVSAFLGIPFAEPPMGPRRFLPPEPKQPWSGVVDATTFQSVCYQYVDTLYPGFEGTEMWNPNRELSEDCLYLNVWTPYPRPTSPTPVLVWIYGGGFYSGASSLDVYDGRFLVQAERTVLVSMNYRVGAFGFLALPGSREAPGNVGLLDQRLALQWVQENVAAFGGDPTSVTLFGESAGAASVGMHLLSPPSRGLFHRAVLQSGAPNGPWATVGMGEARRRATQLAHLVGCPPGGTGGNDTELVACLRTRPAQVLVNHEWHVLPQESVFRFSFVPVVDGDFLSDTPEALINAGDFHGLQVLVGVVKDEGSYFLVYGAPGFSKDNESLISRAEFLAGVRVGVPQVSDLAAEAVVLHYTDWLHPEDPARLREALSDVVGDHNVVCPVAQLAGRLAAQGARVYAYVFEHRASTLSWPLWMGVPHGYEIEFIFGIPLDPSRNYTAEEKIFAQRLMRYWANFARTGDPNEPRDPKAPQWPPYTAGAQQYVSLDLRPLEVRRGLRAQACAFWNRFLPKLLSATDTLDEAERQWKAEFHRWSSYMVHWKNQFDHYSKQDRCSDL
Sequence of Cholinesterase (P06276 whole entry): as the sequence (P06276 whole entry, looked up) above
Sequence of Acetylcholinesterase (Homo sapiens, UniProt P22303) (P22303 whole entry): as the sequence (P22303 whole entry, looked up) above

With `CC1=CC2Cc3nc4cccc(F)c4c(N)c3C(C1)C2` (stereo not drawn), in test [1], the Ratio was determined as 15.3. Moreover, at Acetylcholinesterase [2], the IC50 (as a rule, the concentration that gives 50% inhibition) is 35.4 nM.
For the compound `CCC1=CC2Cc3nc4cccc(Cl)c4c(N)c3C(C1)C2` (stereo not drawn), the IC50 came to 331 nM against Cholinesterase and 11.7 nM against Acetylcholinesterase [2].
On to `CCC1=CC2Cc3nc4cc(C)cc(C)c4c(N)c3C(C1)C2` (stereo not drawn), for which the IC50 on Cholinesterase came out at 32.6 nM; at Acetylcholinesterase [3] it was 3.59 nM; against Acetylcholinesterase [2], 4.96 nM. Moreover, the Ratio in [1] was 6.57.
`CC1=CC2Cc3nc4cc(F)cc(F)c4c(N)c3C(C1)C2` (stereo not drawn): the half-maximal inhibitory concentration (IC50) against Cholinesterase was 963 nM; against Acetylcholinesterase [2], 2.2 nM. In test [1], the Ratio was 438.
Turning to `CCC1=CC2Cc3nc4cc(F)cc(F)c4c(N)c3C(C1)C2` (stereo not drawn), the figures for the IC50 against Cholinesterase, at Acetylcholinesterase [3] and at Acetylcholinesterase [2] were 194 nM, 2.62 nM and 1.76 nM, respectively.
For `CCC1=CC2Cc3nc4cc(Cl)cc(Cl)c4c(N)c3C(C1)C2` (stereo not drawn), the IC50 against Cholinesterase amounted to 1210 nM; on Acetylcholinesterase [3] it was 39.6 nM; at Acetylcholinesterase [2], 1.39 nM.
`CC1=C[C@@H]2Cc3nc4cc(F)ccc4c(N)c3[C@H](C1)C2`: the Ratio in test [1] was 43. In addition, on Acetylcholinesterase [2], it took 4.58 nM to reach half-maximal inhibition (IC50).
With `CCC1=CC2Cc3nc4cc(C)ccc4c(N)c3C(C1)C2` (stereo not drawn), the NR entry in [4] is “No reversion”.
Regarding `CCC1=CC2Cc3nc4cc(Cl)ccc4c(N)c3[C@@H](C1)C2` (mixture of isomers; (+)), the NR entry in test [5] is “No reversion”.
For `CCC1=CC2Cc3nc4cc(Cl)ccc4c(N)c3[C@@H](C1)C2` (mixture of isomers; (+)) [HUPRINE X], the IC50 on Acetylcholinesterase [6] is 350 nM; against Cholinesterase, 58.3 nM; against Acetylcholinesterase [3], 402 nM; against Acetylcholinesterase [2], 23.1 nM; at Acetylcholinesterase [7] it was 240 nM.
Regarding `CCC1=CC2Cc3nc4cc(Cl)ccc4c(N)c3[C@@H](C1)C2` (mixture of isomers; (-)) [HUPRINE X], the IC50 came out at 0.0674 nM at Acetylcholinesterase [6]; 159 nM on Cholinesterase; 1.3 nM against Acetylcholinesterase [3]; 0.32 nM against Acetylcholinesterase [2]; 2.31 nM against Acetylcholinesterase [7].
Regarding `CC1=CC2Cc3nc4cc(Cl)ccc4c(N)c3C(C1)C2` (racemic; (+)), the inhibition – broadly, the share of the control response that was lost under treatment – in test [8] turned out to be 22.1%.
Consider `CC1=CC2Cc3nc4cc(Cl)ccc4c(N)c3C(C1)C2` (racemic; (+)) [HUPRINE Y], for which the IC50 is 153 nM at Cholinesterase and 65 nM against Acetylcholinesterase [3].
On to `CC1=CC2Cc3nc4cc(Cl)ccc4c(N)c3C(C1)C2` (racemic; (-)) [HUPRINE Y], for which the IC50 against Acetylcholinesterase [6] amounted to 0.0245 nM; against Cholinesterase, 247 nM; against Acetylcholinesterase [3], 1.15 nM; against Acetylcholinesterase [7] it was 3.03 nM.
Turning to `CCC1=CC2Cc3nc4cc(Cl)ccc4c(N)c3[C@@H](C1)C2` (stereo in doubt) [HUPRINE X], the IC50 was 0.23 nM at Acetylcholinesterase [6]; 15.8 nM at Cholinesterase; 2.77 nM against Acetylcholinesterase [3]; 0.75 nM on Acetylcholinesterase [2]; 3.34 nM on Acetylcholinesterase [7].
As to `CC1=CC2Cc3nc4cc(Cl)ccc4c(N)c3C(C1)C2` (stereo in doubt) [HUPRINE Y], the half-maximal inhibitory concentration (IC50) was 0.64 nM at Acetylcholinesterase [6], 236 nM at Cholinesterase, 4.23 nM against Acetylcholinesterase [3] and 3.1 nM against Acetylcholinesterase [7].
On Cholinesterase, `C/C=C1\[C@H]2C=C(C)C[C@]1(N)c1ccc(=O)[nH]c1C2` [HUPERZINE A] came in with an IC50 of more than 10000 nM.
